From the supplement of paper PMC10307832

How the values were obtained:
Test in all cases: relative viability (nuclei count vs DMSO), 5 days (fraction); higher = more cells survive
Linifanib = compound: Cc1ccc(F)c(NC(=O)Nc2ccc(-c3cccc4[nH]nc(N)c34)cc2)c1 [Linifanib]
Outline: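 In 1536-well plates, lung cancer cell lines rested overnight at 37 °C before five library-drug doses (not always all listed), √10 apart, were pinned onto vehicle-anchored plates. Nuclei were counted with MetaXpress from 4× Hoechst images taken after 5 days without medium change. Viability compares treated-well with vehicle-well nuclei as a median over plates, and plates needed control CV below 25% plus at least one doubling to pass.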

Linifanib + Trametinib = compound: Cc1ccc(F)c(NC(=O)Nc2ccc(-c3cccc4[nH]nc(N)c34)cc2)c1 [Linifanib] + CC(=O)Nc1cccc(-n2c(=O)n(C3CC3)c(=O)c3c(Nc4ccc(I)cc4F)n(C)c(=O)c(C)c32)c1 [Trametinib] (partner 0.02 µM)
Outline: (§1)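 Lung cancer cell lines were pin-tool dosed in 1536-well plates on the day after seeding, with either a lone drug or a fixed anchor-drug dose plus five library-drug doses (not always all listed) in √10 steps. Nuclei were counted on 4× images after 5 days. Relative viability is the ratio of treated-well to vehicle-well nuclei counts, with each value a median of duplicate plates.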

Linifanib + Bortezomib = compound: Cc1ccc(F)c(NC(=O)Nc2ccc(-c3cccc4[nH]nc(N)c34)cc2)c1 [Linifanib] + CC(C)C[C@H](NC(=O)[C@H](Cc1ccccc1)NC(=O)c1cnccn1)B(O)O [Bortezomib] (partner 0.002 µM)
Outline: as §1

Linifanib + Phenformin = compound: Cc1ccc(F)c(NC(=O)Nc2ccc(-c3cccc4[nH]nc(N)c34)cc2)c1 [Linifanib] + N=C(N)NC(=N)NCCc1ccccc1 [Phenformin] (partner 250 µM)
Outline: as §1

Linifanib + Decitabine = compound: Cc1ccc(F)c(NC(=O)Nc2ccc(-c3cccc4[nH]nc(N)c34)cc2)c1 [Linifanib] + Nc1ncn([C@H]2C[C@H](O)[C@@H](CO)O2)c(=O)n1 [Decitabine] (partner 2 µM)
Outline: as §1

Linifanib + Vorinostat = compound: Cc1ccc(F)c(NC(=O)Nc2ccc(-c3cccc4[nH]nc(N)c34)cc2)c1 [Linifanib] + O=C(CCCCCCC(=O)Nc1ccccc1)NO [Vorinostat] (partner 1 µM)
Outline: as §1

Cell Line	relative viability (Linifanib; 0.03162 µM)	relative viability (Linifanib; 0.1 µM)	relative viability (Linifanib; 0.3162 µM)	relative viability (Linifanib + Trametinib; first compound 0.03162 µM)	relative viability (Linifanib + Trametinib; first compound 0.1 µM)	relative viability (Linifanib + Trametinib; first compound 0.3162 µM)	relative viability (Linifanib + Bortezomib; first compound 0.03162 µM)	relative viability (Linifanib + Bortezomib; first compound 0.1 µM)	relative viability (Linifanib + Bortezomib; first compound 0.3162 µM)	relative viability (Linifanib + Phenformin; first compound 0.03162 µM)	relative viability (Linifanib + Phenformin; first compound 0.1 µM)	relative viability (Linifanib + Phenformin; first compound 0.3162 µM)	relative viability (Linifanib + Decitabine; first compound 0.03162 µM)	relative viability (Linifanib + Decitabine; first compound 0.1 µM)	relative viability (Linifanib + Decitabine; first compound 0.3162 µM)	relative viability (Linifanib + Vorinostat; first compound 0.03162 µM)	relative viability (Linifanib + Vorinostat; first compound 0.1 µM)	relative viability (Linifanib + Vorinostat; first compound 0.3162 µM)
HOP-62	1.06	1.03	0.974	0.412	0.439	0.355	0.617	0.969	0.728	0.736	0.689	0.653	0.194	0.197	0.2	0.803	0.643	0.604
NCI-H1993	0.89	1.2	0.946	0.623	0.593	0.61	1.1	1.39	1.2	0.44	0.514	0.504	0.631	0.654	0.59	1.08	0.958	0.825
A-427	1.05	1.07	0.989	0.755	0.806	0.836	1.04	1.05	0.949	0.346	0.428	0.294	0.583	0.612	0.579	0.884	0.86	0.918
201T	1	0.992	0.982	0.746	0.736	0.758	1.05	1.09	1.08	0.503	0.473	0.422	0.867	0.862	0.891	1.01	0.981	1.02
SK-LU-1	1.07	1.11	1.01	0.457	0.745	0.48	1.11	1.2	1.19	0.528	0.622	0.58	0.672	0.645	0.669	0.74	0.749	0.828
NCI-H1651	1.07	1.09	0.978	0.896	0.787	0.787	0.967	0.934	0.895	0.314	0.368	0.309	0.616	0.592	0.517	0.688	0.561	0.573
LC-2-ad	0.996	0.996	0.88	0.87	0.924	0.824	0.976	1.23	0.98	0.645	0.609	0.505	0.759	0.799	0.836	0.83	0.7	0.73
NCI-H1734	1.04	1.06	0.942	0.618	0.693	0.648	1.04	1.15	0.93	0.384	0.454	0.366	0.493	0.514	0.508	0.815	0.849	0.83
COR-L 105	0.975	0.97	0.904	0.444	0.451	0.45	0.954	0.851	0.735	0.577	0.548	0.465	0.602	0.73	0.585	0.86	0.809	0.796
EKVX	0.982	1.01	0.91	0.381	0.411	0.392	0.863	1.03	0.698	0.241	0.25	0.194	0.314	0.359	0.35	0.731	0.774	0.75
NCI-H838	0.96	1.06	0.936	0.528	0.554	0.521	1.24	1.08	0.968	0.79	0.642	0.542	0.521	0.472	0.443	0.724	0.711	0.686
LOU-NH91	0.979	1.07	0.951	0.775	0.798	0.762	0.47	0.548	0.463	0.734	0.806	0.732	0.812	0.785	0.814	0.969	0.975	0.943
NCI-H2347	1.08	1.22	1	0.283	0.292	0.264	1.11	1.16	0.778	0.517	0.864	0.298	0.622	0.616	0.598	0.73	0.773	0.665
NCI-H1915	1.03	1.02	0.934	0.279	0.339	0.297	1.01	0.937	0.98	0.368	0.378	0.352	0.286	0.247	0.257	0.549	0.482	0.504
NCI-H3122	1.02	1.02	0.975	0.273	0.251	0.19	1.01	1	0.989	0.381	0.399	0.362	0.442	0.418	0.487	1.12	1.09	0.927
NCI-H2009	1.08	0.972	0.987	0.266	0.343	0.274	1.25	1.05	0.963	0.483	0.493	0.459	0.371	0.41	0.378	0.695	0.781	0.743
